Data set [1] can be described thus: Human plasma half-life assay (LC-MS). Type of data set: in vitro ADME. The conditions noted are these: incubated at 37° C., read-out: Human Plasma T½ (converted). In a few lines:
(§1)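 Aliquots taken from human or rat plasma at time points up to 72 h, quenched with formic acid and acetonitrile, centrifuged. Supernatant analyzed by LC-MS (ESI, positive ion, full scan) on a C8 column with a water/acetonitrile 1% formic acid gradient.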

A short description of data set [2]: Rat plasma half-life assay (LC-MS). Type of data set: in vitro ADME. To be noted: incubated at 37° C., read-out: Rat Plasma T½ (converted). In outline: as §1

Seven compounds from patent US8450266B2 (Ipsen Pharma S.A.S., priority 2008, dated 2013) can be followed below.

Where a SMILES comes first, the peptide text is derived from it. [ ]: non-standard residue; d: D form. The star is where a group is joined. X2 = CCCCCCN1C(=O)CC(*)C1=O; Decanoyl = CCCCCCCCCC(=O)*; Ac6c = NC1(C(=O)O)CCCCC1; Orn = NCCC[C@H](N)C(=O)O; X1 = CCCN1C(=O)CC(*)C1=O

As for `CCCN1C(=O)CC(SC[C@H](NC(=O)[C@H](CCCCN)NC(=O)[C@H](Cc2c[nH]c3ccccc23)NC(=O)[C@H](CC(=O)O)NC(=O)[C@H](CC(N)=O)NC(=O)[C@H](CCCCN)NC(=O)[C@H](CCCCN)NC(=O)CNC(=O)[C@H](CCCCN)NC(=O)[C@H](CCC(N)=O)NC(=O)[C@H](C)NC(=O)[C@H](CC(C)C)NC(=O)[C@H](CC(C)C)NC(=O)[C@H](Cc2c[nH]c3ccccc23)NC(=O)[C@H](CC(N)=O)NC(=O)[C@@H](NC(=O)[C@H](Cc2ccccc2)NC(=O)[C@H](CC(=O)O)NC(=O)[C@H](CCC(N)=O)NC(=O)[C@H](CCC(N)=O)NC(=O)[C@H](Cc2c[nH]cn2)NC(=O)[C@@H](NC(=O)[C@H](CCCCN)NC(=O)[C@H](CC(=O)O)NC(=O)[C@H](CCSC)NC(=O)[C@H](C)NC(=O)[C@@H](NC(=O)[C@H](CO)NC(=O)[C@H](Cc2ccc(O)cc2)NC(=O)[C@H](CC(=O)O)NC(=O)[C@H](CO)NC(=O)C2(NC(C)=O)CCCCC2)[C@@H](C)CC)[C@@H](C)CC)C(C)C)C(=O)N[C@@H](CC(N)=O)C(=O)N[C@H](C(=O)N[C@H](C(=O)N[C@@H](CCC(N)=O)C(=O)O)[C@@H](C)O)[C@@H](C)CC)C1=O` (some centres unmarked) [Example 4, [Ac-A6c^7, Cys(Psu)^38]hGIP(7-42)-OH] (Ac-[Ac6c]SDYSIAMDKIHQQDFVNWLLAQKGKKNDWKC(X1)NITQ-OH), the values for the half-life at 0.1 mg/mL in data set [1] and in data set [2] were 10 h and 6 h, respectively.

Regarding `CCCN1C(=O)CC(SC[C@H](NC(=O)[C@H](CCCCN)NC(=O)[C@H](CCC(N)=O)NC(=O)[C@H](C)NC(=O)[C@H](CC(C)C)NC(=O)[C@H](CC(C)C)NC(=O)[C@H](Cc2c[nH]c3ccccc23)NC(=O)[C@H](CC(N)=O)NC(=O)[C@@H](NC(=O)[C@H](Cc2ccccc2)NC(=O)[C@H](CC(=O)O)NC(=O)[C@H](CCC(N)=O)NC(=O)[C@H](CCC(N)=O)NC(=O)[C@H](Cc2c[nH]cn2)NC(=O)[C@@H](NC(=O)[C@H](CCCCN)NC(=O)[C@H](CC(=O)O)NC(=O)[C@H](CCSC)NC(=O)[C@H](C)NC(=O)[C@@H](NC(=O)[C@H](CO)NC(=O)[C@H](Cc2ccc(O)cc2)NC(=O)[C@H](CC(=O)O)NC(=O)[C@H](CO)NC(=O)C2(NC(=O)[C@H](Cc3ccccc3)NC(C)=O)CCCCC2)[C@@H](C)CC)[C@@H](C)CC)C(C)C)C(=O)N[C@@H](CCCCN)C(=O)N[C@@H](CCCCN)C(=O)N[C@@H](CC(N)=O)C(=O)N[C@@H](CC(=O)O)C(=O)N[C@@H](Cc2c[nH]c3ccccc23)C(=O)N[C@@H](CCCCN)C(=O)N[C@@H](Cc2c[nH]cn2)C(=O)N[C@@H](CC(N)=O)C(=O)N[C@H](C(=O)N[C@H](C(=O)N[C@@H](CCC(N)=O)C(=O)O)[C@@H](C)O)[C@@H](C)CC)C1=O` (some centres unmarked) [Example 30, [Ac-Phe^6, A6c^7, Cys(Psu)^31]hGIP(6-42)-OH] (Ac-F[Ac6c]SDYSIAMDKIHQQDFVNWLLAQKC(X1)KKNDWKHNITQ-OH), the half-life at 0.1 mg/mL in data set [1] was 7.2 h; in data set [2], 7.6 h.

In the case of `CCCCCCCCCC(=O)NCCC[C@H](NC(=O)[C@H](CCCCN)NC(=O)[C@H](CCCCN)NC(=O)CNC(=O)[C@H](CCCCN)NC(=O)[C@H](CCC(N)=O)NC(=O)[C@H](C)NC(=O)[C@H](CC(C)C)NC(=O)[C@H](CC(C)C)NC(=O)[C@H](Cc1c[nH]c2ccccc12)NC(=O)[C@H](CC(N)=O)NC(=O)[C@@H](NC(=O)[C@H](Cc1ccccc1)NC(=O)[C@H](CC(=O)O)NC(=O)[C@H](CCC(N)=O)NC(=O)[C@H](CCC(N)=O)NC(=O)[C@H](Cc1c[nH]cn1)NC(=O)[C@@H](NC(=O)[C@H](CCCCN)NC(=O)[C@H](CC(=O)O)NC(=O)[C@H](CCSC)NC(=O)[C@H](C)NC(=O)[C@@H](NC(=O)[C@H](CO)NC(=O)[C@H](Cc1ccc(O)cc1)NC(=O)[C@H](CC(=O)O)NC(=O)[C@H](CO)NC(=O)C1(NC(C)=O)CCCCC1)[C@@H](C)CC)[C@@H](C)CC)C(C)C)C(=O)N[C@@H](CC(=O)O)C(=O)N[C@@H](Cc1c[nH]c2ccccc12)C(=O)N[C@@H](CCCCN)C(=O)N[C@@H](Cc1c[nH]cn1)C(=O)N[C@@H](CC(N)=O)C(=O)N[C@H](C(=O)N[C@H](C(=O)N[C@@H](CCC(N)=O)C(=O)O)[C@@H](C)O)[C@@H](C)CC` [Example 19, [Ac-A6c^7, Orn^34(N-C(O)-(CH2)8-CH3)]hGIP(7-42)-OH] (Ac-[Ac6c]SDYSIAMDKIHQQDFVNWLLAQKGKK[Orn](Decanoyl)DWKHNITQ-OH), the half-life at 0.1 mg/ml is 18.9 h in data set [1] and 10.7 h in data set [2].

As to `CCCCCCN1C(=O)CC(SC[C@H](NC(=O)[C@H](CCCCN)NC(=O)[C@H](CCC(N)=O)NC(=O)[C@H](C)NC(=O)[C@H](CC(C)C)NC(=O)[C@H](CC(C)C)NC(=O)[C@H](Cc2c[nH]c3ccccc23)NC(=O)[C@H](CC(N)=O)NC(=O)[C@@H](NC(=O)[C@H](Cc2ccccc2)NC(=O)[C@H](CC(=O)O)NC(=O)[C@H](CCC(N)=O)NC(=O)[C@H](CCC(N)=O)NC(=O)[C@H](Cc2c[nH]cn2)NC(=O)[C@@H](NC(=O)[C@H](CCCCN)NC(=O)[C@H](CC(=O)O)NC(=O)[C@H](CCSC)NC(=O)[C@H](C)NC(=O)[C@@H](NC(=O)[C@H](CO)NC(=O)[C@H](Cc2ccc(O)cc2)NC(=O)[C@H](CC(=O)O)NC(=O)[C@H](CO)NC(=O)C2(N)CCCCC2)[C@@H](C)CC)[C@@H](C)CC)C(C)C)C(=O)N[C@@H](CCCCN)C(=O)N[C@@H](CCCCN)C(=O)N[C@@H](CC(N)=O)C(=O)N[C@@H](CC(=O)O)C(=O)N[C@@H](Cc2c[nH]c3ccccc23)C(=O)N[C@@H](CCCCN)C(=O)N[C@@H](Cc2c[nH]cn2)C(=O)N[C@@H](CC(N)=O)C(=O)N[C@H](C(=O)N[C@H](C(=O)N[C@@H](CCC(N)=O)C(=O)O)[C@@H](C)O)[C@@H](C)CC)C1=O` (some centres unmarked) [Example 23, [A6c^7, Cys(Hsu)^31]hGIP(7-42)-OH] (H-[Ac6c]SDYSIAMDKIHQQDFVNWLLAQKC(X2)KKNDWKHNITQ-OH), the half-life at 0.1 mg/mL in data set [1] is 11.7 h; in data set [2], 5.3 h.

As for `CCCC[C@H](NC(=O)[C@H](C)NC(=O)[C@@H](NC(=O)C(C)(C)NC(=O)[C@H](Cc1ccc(O)cc1)NC(=O)[C@H](CC(=O)O)NC(=O)[C@H](CO)NC(=O)[C@@H](NC(=O)[C@@H](N)Cc1ccccc1)[C@@H](C)CC)[C@@H](C)CC)C(=O)N[C@@H](CC(=O)O)C(=O)N[C@@H](CCCCN)C(=O)N[C@H](C(=O)N[C@@H](Cc1c[nH]cn1)C(=O)N[C@@H](CCC(N)=O)C(=O)N[C@@H](CCC(N)=O)C(=O)N[C@@H](CC(=O)O)C(=O)N[C@@H](Cc1ccccc1)C(=O)N[C@H](C(=O)N[C@@H](CC(N)=O)C(=O)N[C@@H](Cc1c[nH]c2ccccc12)C(=O)N[C@@H](CC(C)C)C(=O)N[C@@H](CC(C)C)C(=O)N[C@@H](C)C(=O)N[C@@H](CCC(N)=O)C(=O)N[C@@H](CCCCN)C(N)=O)C(C)C)[C@@H](C)CC` [Example 37, (Aib^11, Nle^14)hGIP(6-30)-NH2] (HELM PEPTIDE1{F.I.S.D.Y.[Aib].I.A.[Nle].D.K.I.H.Q.Q.D.F.V.N.W.L.L.A.Q.K.[am]}$$$$V2.0), the half-life at 0.1 mg/mL was 13.5 h in data set [1] and 28.5 h in data set [2].

Regarding `CC[C@H](C)[C@H](NC(=O)[C@H](CO)NC(=O)[C@H](Cc1ccc(O)cc1)NC(=O)[C@H](CC(=O)O)NC(=O)[C@H](CO)NC(=O)C1(NC(=O)[C@H](Cc2ccccc2)NC(C)=O)CCCCC1)C(=O)N[C@@H](C)C(=O)N[C@@H](CCSC)C(=O)N[C@@H](CC(=O)O)C(=O)N[C@@H](CCCCN)C(=O)N[C@H](C(=O)N[C@@H](Cc1c[nH]cn1)C(=O)N[C@@H](CCC(N)=O)C(=O)N[C@@H](CCC(N)=O)C(=O)N[C@@H](CC(=O)O)C(=O)N[C@@H](Cc1ccccc1)C(=O)N[C@H](C(=O)N[C@@H](CC(N)=O)C(=O)N[C@@H](Cc1c[nH]c2ccccc12)C(=O)N[C@@H](CC(C)C)C(=O)N[C@@H](CC(C)C)C(=O)N[C@@H](C)C(=O)N[C@@H](CCC(N)=O)C(=O)N[C@@H](CCCCN)C(N)=O)C(C)C)[C@@H](C)CC` [Example 32, (Ac-Phe^6, A6c^7)hGIP(6-30)-NH2], the figures for the half-life at 0.1 mg/mL in data set [1] and in data set [2] were 24.1 h and 60.3 h, respectively.

On to `CCCN1C(=O)CC(SC[C@H](NC(=O)[C@H](CC(N)=O)NC(=O)[C@H](CCCCN)NC(=O)[C@H](CCCCN)NC(=O)CNC(=O)[C@H](CCCCN)NC(=O)[C@H](CCC(N)=O)NC(=O)[C@H](C)NC(=O)[C@H](CC(C)C)NC(=O)[C@H](CC(C)C)NC(=O)[C@H](Cc2c[nH]c3ccccc23)NC(=O)[C@H](CC(N)=O)NC(=O)[C@@H](NC(=O)[C@H](Cc2ccccc2)NC(=O)[C@H](CC(=O)O)NC(=O)[C@H](CCC(N)=O)NC(=O)[C@H](CCC(N)=O)NC(=O)[C@H](Cc2c[nH]cn2)NC(=O)[C@@H](NC(=O)[C@H](CCCCN)NC(=O)[C@H](CC(=O)O)NC(=O)[C@H](CCSC)NC(=O)[C@H](C)NC(=O)[C@@H](NC(=O)[C@H](CO)NC(=O)[C@H](Cc2ccc(O)cc2)NC(=O)[C@H](CC(=O)O)NC(=O)[C@H](CO)NC(=O)C2(NC(C)=O)CCCCC2)[C@@H](C)CC)[C@@H](C)CC)C(C)C)C(=O)N[C@@H](Cc2c[nH]c3ccccc23)C(=O)N[C@@H](CCCCN)C(=O)N[C@@H](Cc2c[nH]cn2)C(=O)N[C@@H](CC(N)=O)C(=O)N[C@H](C(=O)N[C@H](C(=O)N[C@@H](CCC(N)=O)C(=O)O)[C@@H](C)O)[C@@H](C)CC)C1=O` (some centres unmarked) [Example 6, [Ac-A6c^7, Cys(Psu)^35]hGIP(7-42)-OH] (Ac-[Ac6c]SDYSIAMDKIHQQDFVNWLLAQKGKKNC(X1)WKHNITQ-OH), for which the half-life at 0.1 mg/mL was 8 h in data set [1] and 3.2 h in data set [2].
